# Assay results from ChEMBL document CHEMBL1152129, “Quantitative structure-activity relationship and complex network approach to monoamine oxidase A and B inhibitors” (J Med Chem, 2008).
# Tests used:
# Homo sapiens = organism: Homo sapiens; assay: Selectivity ratio of IC50 for human recombinant MAOA to IC50 for human recombinant MAOB
# [1] = biological target: T1, Amine oxidase [flavin-containing] B (Homo sapiens, UniProt P27338)
# T1 sequence (P27338 whole entry): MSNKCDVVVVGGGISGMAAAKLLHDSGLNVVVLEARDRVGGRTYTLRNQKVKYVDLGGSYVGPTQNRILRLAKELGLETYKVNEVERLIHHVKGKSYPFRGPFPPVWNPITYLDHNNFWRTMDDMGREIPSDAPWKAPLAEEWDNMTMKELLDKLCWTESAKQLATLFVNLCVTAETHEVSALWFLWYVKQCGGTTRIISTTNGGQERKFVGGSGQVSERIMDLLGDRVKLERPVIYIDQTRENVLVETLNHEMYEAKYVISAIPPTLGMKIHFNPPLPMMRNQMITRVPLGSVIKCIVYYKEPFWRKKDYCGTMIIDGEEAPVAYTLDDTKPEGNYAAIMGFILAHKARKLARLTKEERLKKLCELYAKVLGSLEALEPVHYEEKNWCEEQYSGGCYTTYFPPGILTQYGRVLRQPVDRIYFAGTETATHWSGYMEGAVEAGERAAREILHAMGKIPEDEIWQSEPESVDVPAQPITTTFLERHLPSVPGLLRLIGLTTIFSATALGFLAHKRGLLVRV
# Description: Inhibition of human recombinant MAOB by fluorimetric method
# [2] = biological target: T2, Amine oxidase [flavin-containing] A (Homo sapiens, UniProt P21397); assay: Inhibition of human recombinant MAOA by fluorimetric method
# T2 sequence (P21397 whole entry): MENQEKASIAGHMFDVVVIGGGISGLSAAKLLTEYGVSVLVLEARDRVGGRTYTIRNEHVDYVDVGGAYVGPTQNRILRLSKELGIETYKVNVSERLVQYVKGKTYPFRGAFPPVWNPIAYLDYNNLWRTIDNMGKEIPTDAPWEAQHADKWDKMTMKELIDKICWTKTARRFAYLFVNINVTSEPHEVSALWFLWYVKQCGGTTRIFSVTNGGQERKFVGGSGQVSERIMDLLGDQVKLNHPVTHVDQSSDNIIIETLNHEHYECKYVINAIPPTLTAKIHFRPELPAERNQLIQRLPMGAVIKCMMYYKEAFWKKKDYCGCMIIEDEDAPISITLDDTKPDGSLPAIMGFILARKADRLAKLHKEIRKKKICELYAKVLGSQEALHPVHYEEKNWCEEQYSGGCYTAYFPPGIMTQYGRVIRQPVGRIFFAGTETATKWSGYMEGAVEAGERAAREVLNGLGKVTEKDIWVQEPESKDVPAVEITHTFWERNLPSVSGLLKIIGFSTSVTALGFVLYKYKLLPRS
# [3] = biological target: T1, Amine oxidase [flavin-containing] B; assay: Inhibition of human recombinant MAOB at 1 mM by fluorimetric method; details: 1000 µM
# [4] = biological target: T1, Amine oxidase [flavin-containing] B; assay: Inhibition of human recombinant MAOB at 100 uM by fluorimetric method
# [5] = biological target: T1, Amine oxidase [flavin-containing] B; assay: Inhibition of human liver MAOB
# [6] = biological target: T2, Amine oxidase [flavin-containing] A; assay: Inhibition of human recombinant MAOA at 100 uM by fluorimetric method
# [7] = biological target: T2, Amine oxidase [flavin-containing] A; assay: Inhibition of human liver MAOA
structure (smiles),measurement,setting,value
Cc1cc(=O)oc2c(C)c3oc4c(c3cc12)CCC4,Ratio IC50,Homo sapiens,0.45
same,IC50,[1],73.2 µM
same,IC50,[2],32.8 µM
CCN(CC)CC(=O)Nc1c(C)cccc1C [LIDOCAINE],Activity,[3],Not Active
O=c1ccc2cc3c4c(oc3cc2o1)CC4,Ratio IC50,Homo sapiens,< 0.58
same,IC50,[2],57.9 µM
same,Activity,[4],Not Active
O=[N+]([O-])O[C@@H]1CO[C@H]2[C@@H]1OC[C@@H]2O [ISOSORBIDE MONONITRATE],Activity,[4],Not Active
same,Activity,[5],Not Active
C1OC1CN1CCC(C2CCN(CC3CO3)CC2)CC1 (centres undefined) [EPIPROPIDINE],Activity,[3],Not Active
COC(F)(F)C(Cl)Cl [METHOXYFLURANE],Activity,[3],Not Active
COc1c(O)ccc2cc(N)c(=O)oc12,Activity,[6],Not Active
same,Activity,[4],Not Active
CS(=O)(=O)OC[C@@H]1O[C@H]1[C@@H]1O[C@H]1COS(C)(=O)=O,Activity,[3],Not Active
COc1c(OCC(C)=O)ccc2cc(NC(C)=O)c(=O)oc12,Ratio IC50,Homo sapiens,< 0.53
same,IC50,[2],5.31 µM
same,Activity,[4],Not Active
CCCOC1=C(N2CC2)C(=O)C(OCCC)=C(N2CC2)C1=O [INPROQUONE],Activity,[3],Not Active
Cc1cc(=O)oc2cc(OC3CCCC3=O)ccc12 (centres undefined),Ratio IC50,Homo sapiens,0.0073
same,IC50,[1],5.57 µM
same,IC50,[2],0.0405 µM
COc1c(O)ccc2c3c(c(=O)oc12)CCC3,Ratio IC50,Homo sapiens,< 0.63
same,IC50,[2],63.5 µM
same,Activity,[4],Not Active
O=c1oc2cc(O)ccc2c2c1CCC2,Ratio IC50,Homo sapiens,< 0.48
same,IC50,[2],48.2 µM
same,Activity,[4],Not Active
CN1C[C@H](C(=O)N[C@]2(C)O[C@@]3(O)[C@@H]4CCCN4C(=O)[C@H](Cc4ccccc4)N3C2=O)C=C2c3cccc4[nH]cc(c34)C[C@H]21 [ERGOTAMINE],Activity,[3],Not Active
Cc1ncc([N+](=O)[O-])n1CCO [METRONIDAZOLE],Activity,[4],Not Active
same,Activity,[5],Not Active
NS(=O)(=O)c1cc(Cl)c(Cl)c(S(N)(=O)=O)c1 [DICHLORPHENAMIDE],Activity,[3],Not Active
Cc1cc(=O)oc2c(C)c(OC3CCCCC3=O)ccc12 (centres undefined),Ratio IC50,Homo sapiens,0.1
same,IC50,[1],3.87 µM
same,IC50,[2],0.4 µM
CC(=O)[C@@]1(O)CC[C@H]2[C@@H]3C[C@H](C)C4=CC(=O)CC[C@]4(C)[C@H]3CC[C@@]21C,Activity,[3],Not Active
N[C@@H](Cc1ccc(O)c(O)c1)C(=O)O [LEVODOPA],Activity,[3],Not Active
C=C(Br)COc1ccc2c3c(c(=O)oc2c1C)CCCC3,Ratio IC50,Homo sapiens,2.94
same,IC50,[1],0.236 µM
same,IC50,[2],0.695 µM
N=c1nc2n(cc1F)[C@@H]1O[C@H](CO)[C@@H](O)[C@@H]1O2 [FLUROCITABINE],Activity,[3],Not Active
C[C@@H]1O[C@@H](O[C@H]2C[C@](O)(C(=O)CO)Cc3c(O)c4c(c(O)c32)C(=O)c2ccccc2C4=O)C[C@H](N)[C@@H]1O [MEDORUBICIN],Activity,[3],Not Active
COc1cc(O)cc2oc(=O)ccc12,Activity,[6],Not Active
same,Activity,[4],Not Active
Cc1c(O)ccc2c3c(c(=O)oc12)CCC3,Activity,[6],Not Active
same,Activity,[4],Not Active
C[C@H]1O[C@@H](O[C@H]2[C@@H](O)C[C@H](O[C@H]3[C@@H](O)C[C@H](O[C@H]4CC[C@@]5(C)[C@H](CC[C@@H]6[C@@H]5C[C@@H](O)[C@]5(C)[C@@H](C7=CC(=O)OC7)CC[C@]65O)C4)O[C@@H]3C)O[C@@H]2C)C[C@H](O)[C@@H]1O [DIGOXIN],Activity,[6],Not Active
same,Activity,[7],Not Active
same,Activity,[5],Not Active
COc1c2ccc(=O)oc2cc2occ(C)c12,Ratio IC50,Homo sapiens,0.98
same,IC50,[1],260 µM
same,IC50,[2],255 µM
COc1c(OCC(C)=O)ccc2c1oc(=O)c1ccccc12,Ratio IC50,Homo sapiens,1.27
same,IC50,[1],9.36 µM
same,IC50,[2],11.9 µM
O=C(Cc1ccc(N(CCCl)CCCl)cc1)NC[C@H](NC(=O)Cc1ccc(N(CCCl)CCCl)cc1)C(=O)O [LONIN 4],Activity,[4],Not Active
same,Activity,[5],Not Active
CC(=O)COc1ccc2c3c(c(=O)oc2c1C)CCC3,Ratio IC50,Homo sapiens,1.42
same,IC50,[1],0.165 µM
same,IC50,[2],0.235 µM
CCc1cc(C(N)=S)ccn1 [ETHIONAMIDE],Activity,[4],Not Active
same,Activity,[5],Not Active
Cc1cccc(C)c1NC(=O)C1CCCCN1C (centres undefined) [MEPIVACAINE],Activity,[4],Not Active
same,Activity,[5],Not Active
CC(=O)COc1ccc2c(oc(=O)c3ccccc32)c1C,Ratio IC50,Homo sapiens,0.091
same,IC50,[1],28.1 µM
same,IC50,[2],2.56 µM
CC[C@H](c1ccc(OP(=O)(O)O)cc1)[C@@H](CC)c1ccc(OP(=O)(O)O)cc1 [HEXESTROL DIPHOSPHATE],Activity,[4],Not Active
same,Activity,[5],Not Active
CN(Cc1cnc2nc(N)nc(N)c2n1)c1ccc(C(=O)N[C@@H](CCC(=O)O)C(=O)O)cc1 [METHOTREXATE],Activity,[3],Not Active
C=C(Br)COc1ccc2c3c(c(=O)oc2c1C)CCC3,Ratio IC50,Homo sapiens,110
same,IC50,[1],0.00118 µM
same,IC50,[2],0.13 µM
COc1c2occc2cc2cc(N)c(=O)oc12,Ratio IC50,Homo sapiens,0.74
same,IC50,[1],16.5 µM
same,IC50,[2],12.2 µM
Cc1cc(=O)oc2c(C)c(O)ccc12,Activity,[6],Not Active
same,IC50,[1],71.3 µM
COC(=O)[C@H](Cc1cnc[nH]1)NC(=O)Cc1ccc(N(CCCl)CCCl)cc1,Activity,[4],Not Active
same,Activity,[5],Not Active
COc1c(OCC(C)=O)ccc2c3c(c(=O)oc12)CCC3,Ratio IC50,Homo sapiens,0.0093
same,IC50,[1],13 µM
same,IC50,[2],0.121 µM
C[C@H]1O[C@@H](O[C@H]2[C@@H](O)C[C@H](O[C@H]3[C@@H](O)C[C@H](O[C@H]4CC[C@@]5(C)[C@H](CC[C@@H]6[C@@H]5CC[C@]5(C)[C@@H](C7=CC(=O)OC7)CC[C@]65O)C4)O[C@@H]3C)O[C@@H]2C)C[C@H](O)[C@@H]1O [DIGITOXIN],Activity,[6],Not Active
same,Activity,[7],Not Active
same,Activity,[5],Not Active
CC(=O)Nc1c(I)c(C(=O)N[C@H]2C(O)O[C@H](CO)[C@@H](O)[C@@H]2O)c(I)c(N(C)C(C)=O)c1I (some centres undefined) [METRIZAMIDE],Activity,[4],Not Active
same,Activity,[5],Not Active
O=C(NCCN1CCOCC1)c1ccc(Cl)cc1 [MOCLOBEMIDE],Activity,[3],Not Active
O=NN(CCCl)C(=O)NC1CCCCC1 [LOMUSTINE],Activity,[4],Not Active
same,Activity,[5],Not Active
COc1c(O)ccc2c3c(c(=O)oc12)CCCC3,Ratio IC50,Homo sapiens,> 1.99
same,Activity,[6],Not Active
same,IC50,[1],50.2 µM
O=CN(O)CC(=O)O [HADACIDIN],Activity,[3],Not Active
NC(N)=N/N=C/c1ccc([N+](=O)[O-])o1 [FURAGUANIDINE],Activity,[4],Not Active
same,Activity,[5],Not Active
CN(C)/N=N/c1[nH]cnc1C(N)=O [DACARBAZINE],Activity,[7],Not Active
same,Activity,[3],Not Active
Cc1cc(=O)oc2c(C)c3oc4c(c3cc12)CCCC4,Activity,[6],Not Active
same,Activity,[4],Not Active
Cc1c(O)ccc2c3c(c(=O)oc12)CCCC3,Ratio IC50,Homo sapiens,< 0.6
same,IC50,[2],60.1 µM
same,Activity,[4],Not Active
C=C1[C@@H](C)[C@H]2[C@H](Cc3ccccc3)NC(=O)[C@]23OC(=O)/C=C/[C@H](O)CCC[C@@H](C)C/C=C/[C@H]3[C@@H]1O [CYTOCHALASIN B],Activity,[3],Not Active
CCCC(C)(COC(N)=O)COC(N)=O [MEPROBAMATE],Activity,[4],Not Active
same,Activity,[5],Not Active
COc1cc(OCC(C)=O)cc2oc(=O)ccc12,Ratio IC50,Homo sapiens,> 2.27
same,Activity,[6],Not Active
same,IC50,[1],44.1 µM
Cc1cc(=O)oc2c(C)c(OC3CCCC3=O)ccc12 (centres undefined),Ratio IC50,Homo sapiens,0.00067
same,IC50,[1],10.6 µM
same,IC50,[2],0.00716 µM
COc1c(OCC(C)=O)ccc2c3c(c(=O)oc12)CCCC3,Ratio IC50,Homo sapiens,0.033
same,IC50,[1],12.1 µM
same,IC50,[2],0.396 µM
O=C1CCCCC1Oc1ccc2ccc(=O)oc2c1 (centres undefined),Ratio IC50,Homo sapiens,< 0.43
same,IC50,[2],43 µM
same,Activity,[4],Not Active
CC(C)(S)[C@@H](N)C(=O)O [PENICILLAMINE],Activity,[6],Not Active
same,Activity,[7],Not Active
same,Activity,[5],Not Active
Cc1cc(=O)oc2cc(O)ccc12 [HYMECROMONE],Activity,[6],Not Active
same,IC50,[1],80.4 µM
O=NN(CCCl)C(=O)NC[C@@H](O)[C@H](O)CN(N=O)C(=O)NCCCl,Activity,[3],Not Active
